The Kinase Knowledgebase extract (Sharma et al. 2016)

Biological target: MAPK14 (human) (UniProt Q16539)
Assay: Inhibition of MAPK14 Kinase Activity
Details: for inhibition: concentration not given here

Sequence of MAPK14 (human) (Q16539 whole entry, looked up): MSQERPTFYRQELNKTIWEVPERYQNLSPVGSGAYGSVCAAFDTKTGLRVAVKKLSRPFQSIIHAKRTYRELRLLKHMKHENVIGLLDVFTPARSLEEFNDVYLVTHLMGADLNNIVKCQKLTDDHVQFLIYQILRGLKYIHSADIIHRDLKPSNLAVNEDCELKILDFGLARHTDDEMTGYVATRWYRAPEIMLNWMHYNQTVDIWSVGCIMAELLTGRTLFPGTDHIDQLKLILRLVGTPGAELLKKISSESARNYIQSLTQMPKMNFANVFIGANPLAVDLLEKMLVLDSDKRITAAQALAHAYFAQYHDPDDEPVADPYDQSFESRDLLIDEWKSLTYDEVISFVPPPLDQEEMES

O=C(Nc1cc(C(F)(F)F)ccc1C(=O)N1CCS(=O)(=O)CC1)Nc1cccc(Cl)c1Cl
IC50: < 5 µM

CC(C)(C)c1cc(C(=O)N2CCN(C(=O)CCCC[C@@H]3SC[C@@H]4NC(=O)N[C@@H]43)CC2)c(NC(=O)Nc2cccc(Cl)c2Cl)s1
IC50: < 5 µM

CN(C)CCNC(=O)CN1CCN(C(=O)c2nc(C(C)(C)C)sc2NC(=O)Nc2cccc(Cl)c2Cl)C(C)(C)C1=O
IC50: < 5 µM

CN(C)CCN1CCN(C(=O)c2cc(C(C)(C)C)sc2NC(=O)Nc2ccc(F)cc2Cl)C(C)(C)C1=O
IC50: < 5 µM

CC(C)(C)c1cc(C(=O)N2CCNC(=O)CC2)c(NC(=O)Nc2ccc(C#N)c(Cl)c2)s1
inhibition: 76 to 100%

CC(C)(C)c1nc(C(=O)N2CCNS(=O)(=O)CC2)c(NC(=O)Nc2cccc(Cl)c2Cl)s1
IC50: < 5 µM

CCOC(=O)C(C)(CC)NC(=O)c1cc(C(C)(C)C)sc1NC(=O)Nc1cccc(Cl)c1Cl (stereo not drawn)
IC50: < 5 µM

CC(C)(C)c1cc(C(=O)N2CCNC(=O)CC2)c(NC(=O)NC2CCNCC2)s1
inhibition: 0 to 25%

CN(C)CCN1CCN(C(=O)c2cc(C(C)(C)C)sc2NC(=O)Nc2ccccc2C(F)(F)F)C(C)(C)C1=O
IC50: < 5 µM

COc1cccc(NC(=O)Nc2sc(C(C)(C)C)cc2C(=O)N2CCN(CCN(C)C)C(=O)C2(C)C)c1Cl
IC50: < 5 µM

CN(C)CCN1CCN(C(=O)c2[nH]c(C(C)(C)C)cc2NC(=O)Nc2cccc(Cl)c2Cl)CCC1=O
IC50: < 5 µM

CN(C)CCNC(=O)CN1CCN(C(=O)c2sc(C(C)(C)C)cc2NC(=O)Nc2ccc(F)c(F)c2Cl)C(C)(C)C1=O
IC50: < 5 µM

CC(C)(C)c1cc(C(=O)N2CCNC(=O)CC2)c(NC(=O)Nc2ccc3ocnc3c2)s1
inhibition: 76 to 100%

CN(C)CCN1CCN(C(=O)c2nc(C(C)(C)C)sc2NC(=O)Nc2cccc(Cl)c2Cl)CCC1=O
IC50: < 5 µM

CC1C(=O)NCCN1C(=O)c1cc(C(C)(C)C)sc1NC(=O)Nc1ccc2ccccc2c1 (stereo not drawn)
inhibition: 76 to 100%

CN(C)CCN1CCN(C(=O)c2cc(C(C)(C)C)sc2NC(=O)Nc2cccc(Cl)c2Cl)CCC1=O
inhibition: 76 to 100%

CC(C)(C)c1cc(C(=O)N2CCN(CC(=O)NO)C(=O)C2(C)C)c(NC(=O)Nc2ccc(F)c(Cl)c2Cl)s1
IC50: < 5 µM

CN(C)CCNC(=O)CN1CCN(C(=O)c2cc(C(C)(C)C)sc2NC(=O)Nc2cccc(Cl)c2Cl)CC1
IC50: < 5 µM

COc1ccc(CN2CCN(C(=O)c3cc(C(C)(C)C)sc3NC(=O)Nc3cccc(Cl)c3Cl)C(C)(C)C2=O)cc1
IC50: < 5 µM

COc1ccccc1NC(=O)Nc1sc(C(C)(C)C)cc1C(=O)N1CCNC(=O)CC1
IC50: < 5 µM

CCC1(C)C(=O)N(C)CCN1C(=O)c1cc(C(C)(C)C)sc1NC(=O)Nc1cccc(Cl)c1Cl (stereo not drawn)
IC50: < 5 µM

CN(C)CCNC(=O)CN1CCN(C(=O)c2cc(C(C)(C)C)sc2NC(=O)Nc2ccc(F)cc2Cl)C(C)(C)C1=O
IC50: < 5 µM

CN(C)C(=O)N1CCN(C(=O)c2cc(C(C)(C)C)sc2NC(=O)Nc2cccc(Cl)c2Cl)CC1
IC50: < 5 µM

CC(C)(C)c1nc(C(=O)N2CCNC(=O)C2)c(NC(=O)Nc2cccc(Cl)c2Cl)s1
IC50: < 5 µM

CCC1(C)C(=O)N(CC(=O)NCCN(C)C)CCN1C(=O)c1cc(C(C)(C)C)sc1NC(=O)Nc1ccc(F)cc1Cl (stereo not drawn)
IC50: < 5 µM

Cc1cccc(NC(=O)Nc2sc(C(C)(C)C)cc2C(=O)N2CCNC(=O)CC2)c1
inhibition: 76 to 100%

CCC(C)(C)c1cc(NC(=O)Nc2ccc(F)c(Cl)c2Cl)c(C(=O)N2CCNC(=O)C2(C)C)[nH]1
IC50: < 5 µM

CC1(C)OCC(CNC(=O)CN2CCN(C(=O)c3cc(C(C)(C)C)sc3NC(=O)Nc3cccc(Cl)c3Cl)C(C)(C)C2=O)O1 (stereo not drawn)
IC50: < 5 µM

CC(C)(C)c1cc(C(=O)N2CCNC(=O)C2(C)C)c(NC(=O)Nc2ccc(OC(F)F)c(Cl)c2Cl)s1
IC50: < 5 µM

CCC1(C)C(=O)N(CC(=O)NCCN2CCCC2)CCN1C(=O)c1cc(C(C)(C)C)sc1NC(=O)Nc1cccc(Cl)c1Cl (stereo not drawn)
IC50: < 5 µM

CC(C)(C)c1cc(C(=O)N2CCNS(=O)(=O)CC2)c(NC(=O)Nc2ccc(F)c(Cl)c2Cl)s1
IC50: < 5 µM

COc1ccccc1NC(=O)Nc1sc(C(C)(C)C)cc1C(=O)N1CCN(CCN(C)C)C(=O)C1(C)C
IC50: < 5 µM

CC(C)(C)c1nc(C(=O)N2CCC(=O)N(CCN)CC2)c(NC(=O)Nc2cccc(Cl)c2Cl)s1
IC50: < 5 µM

CC(C)(C)c1cc(C(=O)N2CCCC(O)C2)c(NC(=O)Nc2cccc(Cl)c2Cl)s1 (stereo not drawn)
IC50: < 5 µM

Cc1ccccc1NC(=O)Nc1sc(C(C)(C)C)cc1C(=O)N1CCN(CCN(C)C)C(=O)C1(C)C
IC50: < 5 µM

CC(C)(C)c1cc(C(=O)N2CCN(CCC(=O)O)C(=O)C2(C)C)c(NC(=O)Nc2cccc(Cl)c2Cl)s1
IC50: < 5 µM

CC(C)(C)c1cc(C(=O)N2CCNS(=O)(=O)CC2)c(NC(=O)NC2(c3ccccc3)CC2)s1
inhibition: 26 to 50%

CC(C)(C)c1cc(NC(=O)Nc2ccc(F)c(Cl)c2Cl)c(C(=O)N2CCNS(=O)(=O)CC2)[nH]1
IC50: < 5 µM

CN(C)CCN1CCN(C(=O)c2cc(C(C)(C)C)sc2NC(=O)Nc2ccncc2Cl)C(C)(C)C1=O
IC50: < 5 µM

CCC1(C)C(=O)N(CC(=O)NCCN(C)C)CCN1C(=O)c1cc(C(C)(C)C)sc1NC(=O)Nc1ccc(F)c(Cl)c1Cl (stereo not drawn)
IC50: < 5 µM

Cc1c(F)cccc1NC(=O)Nc1sc(C(C)(C)C)cc1C(=O)N1CCNC(=O)C1(C)CCO (stereo not drawn)
IC50: < 5 µM

CC(C)(C)c1cc(C(=O)N2CCN(CC(=O)O)C(=O)C2(C)C)c(NC(=O)Nc2cccc(Cl)c2Cl)s1
IC50: < 5 µM

CCC1(C)C(=O)NCCN1C(=O)c1cc(C(C)(C)C)sc1NC(=O)Nc1ccc(F)c(Cl)c1Cl (stereo not drawn)
IC50: < 5 µM

CC(C)(C)c1cc(C(=O)N2CCNC(=O)C2(C)CC(N)=O)c(NC(=O)Nc2ccc(F)c(Cl)c2Cl)s1 (stereo not drawn)
IC50: < 5 µM

Cc1noc(CN2CCN(C(=O)c3cc(C(C)(C)C)sc3NC(=O)Nc3ccc(F)c(Cl)c3Cl)C(C)(C)C2=O)n1
IC50: < 5 µM

CON(C)C(=O)CN1CCN(C(=O)c2cc(C(C)(C)C)sc2NC(=O)Nc2ccc(F)cc2Cl)C(C)(C)C1=O
IC50: < 5 µM

CN(C)CCN1CCN(C(=O)c2cc(C(C)(C)C)sc2NC(=O)Nc2c(Cl)cncc2Cl)CCC1=O
IC50: < 5 µM

CONC(=O)CC1(C)C(=O)NCCN1C(=O)c1cc(C(C)(C)C)sc1NC(=O)Nc1ccc(F)c(Cl)c1Cl (stereo not drawn)
IC50: < 5 µM

CC1CC(=O)NCCN1C(=O)c1cc(C(C)(C)C)sc1NC(=O)Nc1cccc(Cl)c1Cl (stereo not drawn)
IC50: < 5 µM

CC1(C)OCC(CN2CCN(C(=O)c3cc(C(C)(C)C)sc3NC(=O)Nc3cccc(Cl)c3Cl)C(C)(C)C2=O)O1 (stereo not drawn)
IC50: < 5 µM

CC(C)(C)c1cc(C(=O)N2CCNS(=O)(=O)CC2)c(NC(=O)Nc2ccc3ocnc3c2)s1
inhibition: 76 to 100%

O=C(Nc1cc(C(=O)N2CCS(=O)(=O)CC2)cc(C(F)(F)F)c1)Nc1cccc(Cl)c1Cl
IC50: < 5 µM

CC(C)(C)c1cc(C(=O)N2CCS(=O)(=O)CC2)c(NC(=O)Nc2ccc3c(c2Cl)OCO3)s1
IC50: < 5 µM

CCc1ccccc1NC(=O)Nc1sc(C(C)(C)C)cc1C(=O)N1CCNC(=O)C1(C)C
IC50: < 5 µM

CC(C)(C)c1cc(NC(=O)Nc2cccc(Cl)c2Cl)c(C(=O)N2CCN(CC(N)=O)C(=O)C2(C)C)[nH]1
IC50: < 5 µM

CC(C)(C)c1cc(NC(=O)Nc2ccc(F)c(Cl)c2Cl)c(C(=O)N2CCNC(=O)C2(C)C)[nH]1
IC50: < 5 µM

CC(C)(C)c1cc(NC(=O)Nc2cccc(Cl)c2Cl)c(C(=O)N2CCNC(=O)CC2)[nH]1
IC50: < 5 µM

CC(C)(C)c1cc(C(=O)N2CCN(CC(=O)NCC3CC3)C(=O)C2(C)C)c(NC(=O)Nc2cccc(Cl)c2Cl)s1
IC50: < 5 µM

CC(=O)NC1CCCN(C(=O)c2cc(C(C)(C)C)sc2NC(=O)Nc2cccc(Cl)c2Cl)C1 (stereo not drawn)
IC50: < 5 µM

CC(C)(C)c1cc(C(=O)N2CCNC(=O)C2(C)CCO)c(NC(=O)Nc2cccc(Cl)c2Cl)[nH]1 (stereo not drawn)
IC50: < 5 µM

CC(C)(C)c1cc(C(=O)N2CCNC(=O)C2(C)C)c(NC(=O)Nc2cc(Cl)cc(Cl)c2)s1
IC50: < 5 µM

CC(C)(C)c1cc(C(=O)N2CCN(CC(O)CO)C(=O)C2(C)C)c(NC(=O)Nc2cccc(Cl)c2Cl)s1 (stereo not drawn)
IC50: < 5 µM

CN(C)CCNC(=O)CN1CCN(C(=O)c2cc(C(C)(C)C)[nH]c2NC(=O)Nc2cccc(Cl)c2Cl)C(C)(C)C1=O
IC50: < 5 µM

CN(C)CCNC(=O)CN1CCN(C(=O)c2sc(C(C)(C)C)cc2NC(=O)Nc2ccc(F)c(Cl)c2Cl)C(C)(C)C1=O
IC50: < 5 µM

CC(C)(C)c1cc(C(=O)N2CCNC(=O)CC2)c(NC(=O)Nc2ccc(CN)cc2)s1
inhibition: 51 to 75%

CC(=O)N1CCCN(C(=O)c2cc(C(C)(C)C)sc2NC(=O)Nc2cccc(Cl)c2Cl)CC1
IC50: < 5 µM

CC(C)(C)c1cc(C(=O)N2CCNC(=O)CC2)c(NC(=O)Nc2ccccc2OC(F)(F)F)s1
IC50: < 5 µM

CONC(=O)CN1CCN(C(=O)c2cc(C(C)(C)C)sc2NC(=O)Nc2cccc(Cl)c2Cl)C(C)(CC(=O)NOC)C1=O (stereo not drawn)
IC50: < 5 µM

CN(C)C(=O)CN1CCN(C(=O)c2cc(C(C)(C)C)sc2NC(=O)Nc2cccc(Cl)c2Cl)C(C)(C)C1=O
IC50: < 5 µM

CC(C)(C)c1cc(C(=O)N2CCNC(=O)C2(C)C)c(NC(=O)Nc2ccc(F)c(Cl)c2Cl)s1
IC50: < 5 µM

CC(C)(C)c1cc(C(=O)N2CCNS(=O)(=O)CC2)c(NC(=O)Nc2cc(Cl)cc(Cl)c2)s1
inhibition: 76 to 100%

CC(C)(C)c1cc(NC(=O)Nc2cccc(Cl)c2Cl)c(C(=O)N2CCNC(=O)C2(C)C)o1
IC50: < 5 µM

CC(C)(C)c1cc(C(=O)N2CCNC(=O)C23CC3)c(NC(=O)Nc2cccc(Cl)c2Cl)s1
IC50: < 5 µM

CC(C)(C)c1cc(C(=O)N2CCNC(=O)CC2)c(NC(=O)Nc2cnc(O)c3ccccc23)s1
inhibition: 26 to 50%

CC(C)(C)c1cc(C(=O)N2CCNC(=O)C23CCC3)c(NC(=O)Nc2ccc(F)c(Cl)c2Cl)s1
IC50: < 5 µM

CON(C)C(=O)CN1CCN(C(=O)c2cc(C(C)(C)C)sc2NC(=O)Nc2ccc(F)c(F)c2Cl)C(C)(C)C1=O
IC50: < 5 µM

CN(C)CCNC(=O)CN1CCN(C(=O)c2cc(C(C)(C)C)sc2NC(=O)Nc2cccc(Cl)c2Cl)C(C)(C)C1=O
IC50: < 5 µM

CC(C)(C)c1cc(C(=O)N2CCNC(=O)CC2)c(NC(=O)Nc2ccc(CN)c3ccccc23)s1
inhibition: 76 to 100%

Cc1ccccc1NC(=O)Nc1sc(C(C)(C)C)cc1C(=O)N1CCNC(=O)C1(C)C
IC50: < 5 µM

CC(C)(C)c1cc(C(=O)N2CCNC(=O)C2(C)C)c(NC(=O)Nc2cccc3ccccc23)s1
IC50: < 5 µM

CN1CCN(C(=O)c2oc(C(C)(C)C)cc2NC(=O)Nc2cccc(Cl)c2Cl)CCS1(=O)=O
IC50: < 5 µM

CC(C)(C)c1cc(C(=O)N2CCNC(=O)C2(C)C)c(NC(=O)Nc2cccnc2Cl)s1
IC50: < 5 µM

CC(C)(C)c1cc(C(=O)N2CCNC(=O)C2(C)C)c(NC(=O)Nc2c(Cl)cncc2Cl)s1
IC50: < 5 µM
